The text below walks through data of US20250171437A1 (Agios Pharmaceuticals,Inc., priority 2022, published 2025).

Each structure is given as a SMILES string. Bounds are passed on as bounds.

The target in one experiment is T1, human PAH with the R408W mutation (A375 R408W cells) (Homo sapiens, UniProt P00439, R408W).
T1 construct: expressed in transfected cells
T1 sequence (P00439 1-452 R408W): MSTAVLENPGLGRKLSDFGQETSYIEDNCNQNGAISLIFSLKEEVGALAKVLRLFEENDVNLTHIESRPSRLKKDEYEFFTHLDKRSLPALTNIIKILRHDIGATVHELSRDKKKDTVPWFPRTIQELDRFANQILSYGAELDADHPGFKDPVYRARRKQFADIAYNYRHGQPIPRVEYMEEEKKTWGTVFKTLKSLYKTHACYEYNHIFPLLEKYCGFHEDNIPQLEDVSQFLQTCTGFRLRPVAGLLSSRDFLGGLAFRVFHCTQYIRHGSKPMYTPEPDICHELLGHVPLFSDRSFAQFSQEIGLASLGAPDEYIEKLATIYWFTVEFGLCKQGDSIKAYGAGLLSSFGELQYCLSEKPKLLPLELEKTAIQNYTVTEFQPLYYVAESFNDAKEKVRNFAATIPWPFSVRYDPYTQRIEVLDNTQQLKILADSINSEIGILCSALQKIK
Briefly: Cell Based Phenylalanine Flux Assay. The conditions noted are these: A375 R408W cells; 24 hrs with compound, then 20 μM sepiapterin and 800 μM 13C9,15N-Phenylalanine for 4 hours; 13C-Tyrosine by LC-MS; average where tested multiple times. A digest of the protocol: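 Puromycin-selected A375 line, lentiviral hPAH R408W; cmpd 24 h, 37 °C, 5% CO2, 0.5% DMSO; then 20 μM sepiapterin + 800 μM 13C9,15N-Phe, 4 h; media extracted in 80% MeCN; 13C-Tyr by LC-MS; AC50 from 10-pt curves.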
As a reminder, the AC50 is the concentration giving half of the maximal activity seen. As to `CN(C)CCc1ccc2c(C(=O)N3CCc4[nH]cnc4[C@@H]3c3nc4cc(F)ccc4o3)cnn2c1` [Example 48, (R)-(6-(2-(dimethylamino)ethyl)pyrazolo[1,5-a]pyridin-3-yl)(4-(5-fluorobenzo[d]oxazol-2-yl)-6,7-dihydro-1H-imidazo[4,5-c]pyridin-5(4H)-yl)methanone], the AC50 was at least 5000 nM.
The same measure, in the same setting: for `O=C(c1ccnn1C1CC1)N1CCc2[nH]cnc2[C@H]1c1nc2cccc(F)c2o1` [Example 727, (S)-(1-cyclopropyl-1H-pyrazol-5-yl)(4-(7-fluorobenzo[d]oxazol-2-yl)-6,7-dihydro-1H-imidazo[4,5-c]pyridin-5(4H)-yl)methanone] the value was 500 to 1000 nM; for `Cc1cccc2nc([C@@H]3c4nc[nH]c4CCN3C(=O)c3ccnn3C(F)(F)F)oc12` [Example 710, (S)-(4-(7-methylbenzo[d]oxazol-2-yl)-6,7-dihydro-1H-imidazo[4,5-c]pyridin-5(4H)-yl)(1-(trifluoromethyl)-1H-pyrazol-5-yl)methanone], at most 500 nM; for `FC(F)(F)c1nnc(N2Cc3[nH]cnc3[C@H]2c2nc3ccccc3o2)o1` [Example 946, (S)-2-(5-(5-(trifluoromethyl)-1,3,4-oxadiazol-2-yl)-1,4,5,6-tetrahydropyrrolo[3,4-d]imidazol-4-yl)benzo[d]oxazole], 1000 to 5000 nM.
Same read-out and setting: for `Cc1ccc2oc([C@H]3c4nc[nH]c4CCN3C(=O)c3ncnn3C)nc2c1` [Example 746, (R)-(1-methyl-1H-1,2,4-triazol-5-yl)(4-(5-methylbenzo[d]oxazol-2-yl)-6,7-dihydro-1H-imidazo[4,5-c]pyridin-5(4H)-yl)methanone] the value was 1000 to 5000 nM.
Regarding `O=C(c1cnc(-c2ccccn2)o1)N1CCc2[nH]cnc2[C@H]1c1nc2cc(F)ccc2o1` [Example 11, (S)-(4-(5-fluorobenzo[d]oxazol-2-yl)-6,7-dihydro-1H-imidazo[4,5-c]pyridin-5(4H)-yl)(2-(pyridin-2-yl)oxazol-5-yl)methanone], the AC50 lay within 500 to 1000 nM.
Same read-out and setting: for `Cn1ccc(-c2nnc(C(=O)N3CCc4[nH]cnc4[C@H]3c3nc4cccc(F)c4o3)o2)n1` [Example 337, (S)-(4-(7-fluorobenzo[d]oxazol-2-yl)-6,7-dihydro-1H-imidazo[4,5-c]pyridin-5(4H)-yl)(5-(1-methyl-1H-pyrazol-3-yl)-1,3,4-oxadiazol-2-yl)methanone] the value was at most 500 nM; for `O=C(c1cnc(-c2ccccn2)s1)N1CCc2[nH]cnc2[C@H]1c1nc2cc(F)ccc2o1` [Example 5, (S)-(4-(5-fluorobenzo[d]oxazol-2-yl)-6,7-dihydro-1H-imidazo[4,5-c]pyridin-5(4H)-yl)(2-(pyridin-2-yl)thiazol-5-yl)methanone], at most 500 nM.
On the same count and under the same terms, for `CC(C)(O)c1nc(C(F)F)c(C(=O)N2CCc3[nH]cnc3[C@H]2c2nc3cccc(C(F)(F)F)c3o2)o1` [Example 453, (S)-(4-(difluoromethyl)-2-(2-hydroxypropan-2-yl)oxazol-5-yl)(4-(7-(trifluoromethyl)benzo[d]oxazol-2-yl)-6,7-dihydro-1H-imidazo[4,5-c]pyridin-5(4H)-yl)methanone] the value was at most 500 nM; for `O=C(c1nnc(-c2ccccn2)o1)N1CCc2[nH]cnc2[C@H]1c1nc2cc(F)cc(F)c2o1` [Example 580, (S)-(4-(5,7-difluorobenzo[d]oxazol-2-yl)-6,7-dihydro-1H-imidazo[4,5-c]pyridin-5(4H)-yl)(5-(pyridin-2-yl)-1,3,4-oxadiazol-2-yl)methanone], 500 to 1000 nM.
On to `Cc1c(F)ccc2oc([C@@H]3c4nc[nH]c4CCN3C(=O)c3oc(C(C)(C)O)nc3C(F)F)nc12` [Example 719, (S)-(4-(difluoromethyl)-2-(2-hydroxypropan-2-yl)oxazol-5-yl)(4-(5-fluoro-4-methylbenzo[d]oxazol-2-yl)-6,7-dihydro-1H-imidazo[4,5-c]pyridin-5(4H)-yl)methanone], for which the AC50 is at most 500 nM.
The same measure, in the same setting: for `Cn1ccc(-c2nnc(C(=O)N3CCc4[nH]cnc4[C@@H]3c3nc4ccc(F)cc4o3)o2)n1` [Example 322, (R)-(4-(6-fluorobenzo[d]oxazol-2-yl)-6,7-dihydro-1H-imidazo[4,5-c]pyridin-5(4H)-yl)(5-(1-methyl-1H-pyrazol-3-yl)-1,3,4-oxadiazol-2-yl)methanone] the value was 1000 to 5000 nM; for `Cc1nc([C@@H](C)O)oc1C(=O)N1CCc2[nH]cnc2[C@H]1c1nc2cccc(F)c2o1` [Example 217, ((S)-4-(7-fluorobenzo[d]oxazol-2-yl)-6,7-dihydro-1H-imidazo[4,5-c]pyridin-5(4H)-yl)(2-((R)-1-hydroxyethyl)-4-methyloxazol-5-yl)methanone], at most 500 nM; for `O=C(c1nnc(-c2ccn(C(F)F)n2)o1)N1CCc2[nH]cnc2[C@H]1c1nc2cccc(F)c2o1` [Example 862, (S)-(5-(1-(difluoromethyl)-1H-pyrazol-3-yl)-1,3,4-oxadiazol-2-yl)(4-(7-fluorobenzo[d]oxazol-2-yl)-6,7-dihydro-1H-imidazo[4,5-c]pyridin-5(4H)-yl)methanone], at most 500 nM.
For the molecule `Cn1nc(Cl)nc1C(=O)N1CCc2[nH]cnc2[C@H]1c1nc2c(F)cccc2o1` [Example 277, (S)-(3-chloro-1-methyl-1H-1,2,4-triazol-5-yl)(4-(4-fluorobenzo[d]oxazol-2-yl)-6,7-dihydro-1H-imidazo[4,5-c]pyridin-5(4H)-yl)methanone], the AC50 is 500 to 1000 nM.
Same read-out and setting: for `CC(C)(O)c1nc(Cl)c(C(=O)N2CCc3[nH]cnc3[C@@H]2c2nc3cccc(F)c3o2)o1` [Example 271, (R)-(4-chloro-2-(2-hydroxypropan-2-yl)oxazol-5-yl)(4-(7-fluorobenzo[d]oxazol-2-yl)-6,7-dihydro-1H-imidazo[4,5-c]pyridin-5(4H)-yl)methanone] the value was 1000 to 5000 nM; for `COc1cccc2nc([C@@H]3c4nc[nH]c4CCN3C(=O)c3nc(C)nn3C)oc12` [Example 909, (S)-(1,3-dimethyl-1H-1,2,4-triazol-5-yl)(4-(7-methoxybenzo[d]oxazol-2-yl)-6,7-dihydro-1H-imidazo[4,5-c]pyridin-5(4H)-yl)methanone], 1000 to 5000 nM.
Still for that read-out and setting: for `O=C(c1ocnc1C(F)F)N1CCc2[nH]cnc2[C@@H]1c1nc2cccc(OC(F)(F)F)c2o1` [Example 531, (R)-(4-(difluoromethyl)oxazol-5-yl)(4-(7-(trifluoromethoxy)benzo[d]oxazol-2-yl)-6,7-dihydro-1H-imidazo[4,5-c]pyridin-5(4H)-yl)methanone] the value was at most 500 nM; for `CC(C)(O)c1nc(C(F)F)c(C(=O)N2CCc3[nH]cnc3[C@@H]2c2nc3cc(Cl)ccc3o2)o1` [Example 376, (R)-(4-(5-chlorobenzo[d]oxazol-2-yl)-6,7-dihydro-1H-imidazo[4,5-c]pyridin-5(4H)-yl)(4-(difluoromethyl)-2-(2-hydroxypropan-2-yl)oxazol-5-yl)methanone], 1000 to 5000 nM.
The same measure, in the same setting: for `O=C(c1nnc(-c2ncccc2F)o1)N1CCc2[nH]cnc2[C@@H]1c1nc2cccc(F)c2o1` [Example 867, (R)-(4-(7-fluorobenzo[d]oxazol-2-yl)-6,7-dihydro-1H-imidazo[4,5-c]pyridin-5(4H)-yl)(5-(3-fluoropyridin-2-yl)-1,3,4-oxadiazol-2-yl)methanone] the value was 500 to 1000 nM; for `O=C(c1ocnc1C(F)F)N1CCc2[nH]cnc2[C@@H]1c1nc2cccc(Br)c2o1` [Example 462, (R)-(4-(7-bromobenzo[d]oxazol-2-yl)-6,7-dihydro-1H-imidazo[4,5-c]pyridin-5(4H)-yl)(4-(difluoromethyl)oxazol-5-yl)methanone], at most 500 nM.
On to `CC(C)(O)c1nc(C(F)F)c(C(=O)N2CCc3[nH]cnc3[C@@H]2c2nc3ccccc3o2)o1` [Example 469, (R)-(4-(benzo[d]oxazol-2-yl)-6,7-dihydro-1H-imidazo[4,5-c]pyridin-5(4H)-yl)(4-(difluoromethyl)-2-(2-hydroxypropan-2-yl)oxazol-5-yl)methanone], for which the AC50 is 1000 to 5000 nM.
Still for that read-out and setting: for `O=C(c1ccnn1CC(F)F)N1CCc2[nH]cnc2[C@@H]1c1nc2cccc(F)c2o1` [Example 848, (R)-(1-(2,2-difluoroethyl)-1H-pyrazol-5-yl)(4-(7-fluorobenzo[d]oxazol-2-yl)-6,7-dihydro-1H-imidazo[4,5-c]pyridin-5(4H)-yl)methanone] the value was 500 to 1000 nM.

Staying with this experiment, now noted: A375 cells expressing R408W PAH; 24 hrs with compound, then 20 μM sepiapterin and 800 μM 13C9,15N-Phenylalanine for 4 hours; 13C-Tyrosine by LC-MS; average where tested multiple times.
In the case of `Cn1nc(C(F)F)nc1C(=O)N1CCc2[nH]cnc2C1c1nc2ccc(F)c(F)c2o1` (centres unmarked), the AC50 lay within 1000 to 5000 nM.
Same read-out and setting: for `Cn1cc(-c2ncc(C(=O)N3CCc4[nH]cnc4C3c3nc4ccc(Br)cc4o3)o2)cn1` (centres unmarked) the value was 1000 to 5000 nM; for `Cn1nc(C(C)(C)C)cc1C(=O)N1CCc2[nH]cnc2C1c1nc2cccc(F)c2o1` (centres unmarked), at least 5000 nM.
The same measure, in the same setting: for `O=C(c1ccn(-c2ccccn2)n1)N1CCc2[nH]cnc2C1c1nc2cccc(F)c2o1` (centres unmarked) the value was at least 5000 nM; for `Cc1ncoc1C(=O)N1CC2(CC2)c2[nH]cnc2C1c1nc2cc(F)ccc2o1` (centres unmarked), at least 5000 nM.
The same measure, in the same setting: for `O=C(c1nncn1C1CC1)N1CCc2[nH]cnc2C1c1nc2c(F)cccc2o1` (centres unmarked) the value was 1000 to 5000 nM.
